This is an account of results in PubChem BioAssay AID1996.

Each structure is given as a SMILES string. ≈ marks a conversion by molar mass, not a printed value. Bounds are passed on as bounds.

The conditions of the data set: buffer; pH 7.4; 200.0 µM.
For `CSc1ncccc1C(=O)OCC(=O)N1CCCC1`, the solubility (kinetic) was > 42.1 µg/mL.

For `CN1CCN(C(=S)Nc2ccc(S(N)(=O)=O)cc2)CC1`, the kinetic solubility was > 47.2 µg/mL.

`CCCNc1nc2ccccc2c(=O)[nH]1`: the kinetic solubility was > 30.5 µg/mL.

`CCc1ccc(NC(=S)N2CCCC(C(F)(F)F)C2)cc1` (configuration not stated) registered a kinetic solubility of 6.1 µg/mL (≈ 19.3 µM).

Consider `NS(=O)(=O)c1cccc(NC(=O)c2ccc(S(=O)(=O)N3CCCCCC3)cc2)c1`, for which the kinetic solubility is 7.1 µg/mL (≈ 16.2 µM).

With `CC(C)CCNc1nc(N)c([N+](=O)[O-])c(NC2CCCCC2)n1`, the solubility (kinetic) is < 0.1 µg/mL.

For the molecule `Cc1ccc(CN(C)C(=O)c2c(C)nn(-c3ccccc3)c2C)cc1`, the kinetic solubility is > 50 µg/mL.

`Cc1cc(=S)c2ccccc2[nH]1` yielded a kinetic solubility of 20.5 µg/mL (≈ 117 µM).

Turning to `COc1ccc(Nc2nccc(-c3cccc(N)c3)n2)cc1`, the solubility (kinetic) was found to be 22.5 µg/mL (≈ 77 µM).

For `CC1CCN(C(=S)NC(=O)c2cccs2)CC1`, the solubility (kinetic) was > 40.3 µg/mL.

Consider `O=C(CN1CCCc2ccccc21)Nc1ccc(F)cc1[N+](=O)[O-]`, for which the solubility (kinetic) is < 0.2 µg/mL.

In turn, `CC1(C)Cc2cccc(C(=O)Nc3ccc(Cl)cc3)c2O1` registered a solubility (kinetic) of 2.4 µg/mL (≈ 7.95 µM).

Turning to `COc1cccc(C(=O)NCCCNC(=O)c2cccc(OC)c2)c1`, the solubility (kinetic) is > 51.4 µg/mL.

Molecule `CC(C)(C)c1cc(CCC(=O)N2CCCC2)cc(C(C)(C)C)c1O` showed a solubility (kinetic) of 43.8 µg/mL (≈ 132 µM).

`Cc1ccc(S(=O)(=O)Oc2ccccc2/C=C2/SC(=O)NC2=O)cc1`: the solubility (kinetic) was determined as 52.7 µg/mL (≈ 140 µM). The solubility kinetic values of the last two molecules are within 1.5-fold of each other.

As to `CC(=O)N1CCN(C(=O)c2ccc(C(=O)c3ccccc3)cc2)CC1`, the kinetic solubility was > 50.5 µg/mL.

In the case of `Clc1ccc(OCCNCCc2ccccc2)cc1.O=C(O)C(=O)O`, the kinetic solubility is > 54.9 µg/mL.

Regarding `CC(CCc1ccccc1)NC(=O)COC(=O)c1cccs1` (configuration not stated), the solubility (kinetic) is > 47.6 µg/mL.

With `Br.Fc1ccccc1CNCc1ccc2c(c1)OCO2`, the kinetic solubility was > 51 µg/mL.

For `O=C(c1ccc([N+](=O)[O-])cc1[N+](=O)[O-])N1CCCC1`, the solubility (kinetic) is > 39.8 µg/mL.

Take `Cc1ccc(C2(CCNCc3ccco3)CCOC(C(C)C)C2)cc1` (configuration not stated): the solubility (kinetic) was > 51.2 µg/mL.

For `O=C(NCc1nc(-c2ccc(C(F)(F)F)cc2)no1)c1cccs1`, the solubility (kinetic) is 7.1 µg/mL (≈ 20.1 µM).

As for `CCOC(=O)c1c(S(=O)(=O)N2CCCC2)c(C)n(C)c1C`, the solubility (kinetic) was > 47.2 µg/mL.

With `Cc1cccc(-c2noc(-c3ccno3)n2)c1`, the kinetic solubility is 4.8 µg/mL (≈ 21.1 µM).

Turning to `O=C1C(=O)N(C/C=C/c2ccccc2)c2ccccc21`, the kinetic solubility was 2.3 µg/mL (≈ 8.74 µM).

As to `O=C(CSc1nnc(C2CC2)n1-c1ccccc1)NC1CCS(=O)(=O)C1` (configuration not stated), the solubility (kinetic) was > 58.9 µg/mL.

For the molecule `C[N+](C)(C)Cc1ccccc1.[Cl-]`, the solubility (kinetic) was > 27.9 µg/mL.

Take `COc1ccc(CCNC(=O)NS(=O)(=O)c2ccc(C)cc2)cc1OC`: the kinetic solubility was > 56.8 µg/mL.

In turn, `COc1ccc(Cl)cc1N=Cc1c(O)n(C)c(=O)n(C)c1=O` had a solubility (kinetic) of 2 µg/mL (≈ 6.18 µM).

In the case of `CC(=O)Oc1ccc2c(=O)c(-c3nc4ccccc4s3)coc2c1`, the solubility (kinetic) is 1 µg/mL (≈ 2.96 µM).

Regarding `COc1ccc(Cn2c(=O)oc3ccc(C)cc32)cc1`, the kinetic solubility was 1.2 µg/mL (≈ 4.46 µM).

`O=C(c1ccc(Cl)c(S(=O)(=O)N2CCc3ccccc32)c1)N1CCN(c2ccccc2O)CC1` yielded a solubility (kinetic) of 11.3 µg/mL (≈ 22.7 µM). This solubility kinetic lies about 9.4-fold higher than the previous one.

Turning to `COc1ccc(F)cc1S(=O)(=O)Nc1ccncc1`, the kinetic solubility was > 42.3 µg/mL.

`CC(=O)c1cc(C(=O)Nc2ccc3ccccc3c2)c(C)o1`: the solubility (kinetic) was 34.5 µg/mL (≈ 118 µM).

In the case of `Cc1ccc(Cl)cc1NC(=O)N[C@@H](CC(C)C)C(=O)O`, the kinetic solubility turned out to be 43.8 µg/mL (≈ 147 µM).

The molecule `O=C(Nc1ccccc1)Nc1csc2ccccc12` returned a solubility (kinetic) of 0.6 µg/mL (≈ 2.24 µM).

The molecule `O=C(c1ccc(Sc2ccccc2)c([N+](=O)[O-])c1)N1CCOCC1` displayed a kinetic solubility of 49.9 µg/mL (≈ 145 µM).

`c1csc(-c2nc3ccccc3s2)c1` yielded a kinetic solubility of 0.7 µg/mL (≈ 3.22 µM).

Turning to `OC(CNC1Cc2ccccc2C1)COc1ccc(Cl)cc1` (configuration not stated), the kinetic solubility is > 47.7 µg/mL.

On to `C=Cn1cc[n+](CC(=O)c2cccs2)c1.[Br-]`, for which the kinetic solubility was > 44.9 µg/mL.

Take `NC(=O)C1CCN(C(=O)Nc2csc3ccccc23)CC1`: the solubility (kinetic) came to 42 µg/mL (≈ 138 µM).

For the molecule `O=C(OC(C(=O)NCc1ccccc1)c1ccccc1)c1ccco1` (configuration not stated), the kinetic solubility was found to be 41.8 µg/mL (≈ 125 µM).

As to `O=C1CC(NC2CCN(C(=O)c3cccc(F)c3)CC2)C(=O)N1` (configuration not stated), the solubility (kinetic) was > 47.9 µg/mL.

Consider `C=CCn1c(CCC)nc2ccccc21`, for which the solubility (kinetic) was > 30 µg/mL.

On to `Nc1ncnc2c1ncn2C1OC(C(=O)NC2CC2)C(O)C1O` (configuration not stated), for which the kinetic solubility was > 48 µg/mL.

In turn, `N#Cc1ccc(/C=C\c2nccc3c2[nH]c2ccccc23)cc1` returned a kinetic solubility of 1.3 µg/mL (≈ 4.4 µM).

As to `CC1CCCCC1NC(=O)NC(=O)COC(=O)c1nccnc1N` (configuration not stated), the kinetic solubility is > 50.3 µg/mL.

Consider `CCc1cccc(CC)c1NC(=S)Nc1cccc(Cl)c1Cl`, for which the solubility (kinetic) was found to be 1.4 µg/mL (≈ 3.96 µM).

Molecule `CC1CCCN(CC(O)COCc2ccc3c(c2)OCO3)C1.Cl` (configuration not stated) returned a kinetic solubility of 39 µg/mL.

As to `CCOC(=O)Cc1csc(NC(=O)CCSc2ccccc2)n1`, the solubility (kinetic) turned out to be 38.5 µg/mL (≈ 110 µM).

`COc1cc2c(cc1OC)CN(C(=O)CCN1C(=O)C3CCCCC3C1=O)CC2` (configuration not stated) registered a kinetic solubility of 46.2 µg/mL (≈ 115 µM).

For the molecule `CN(CC(=O)Nc1cccc(F)c1)CC(=O)Nc1ccccc1-c1ccccc1`, the solubility (kinetic) was found to be 17.3 µg/mL (≈ 44.2 µM).
